Experimental data taken from patent US10752656B2, “Anti-microbial supramolecular structures” (Northwestern University, priority 2016, dated 2020).
Values after ≈ are worked out from the molar mass of the structure shown. Non-standard residues stand in square brackets, D forms with d. Residues, ends and D or L forms follow the SMILES beside them. *: point of attachment. Phe(F5) = N[C@@H](Cc1c(F)c(F)c(F)c(F)c1F)C(=O)O; Palmitoyl = CCCCCCCCCCCCCCCC(=O)*

Assays:
[1] = Rheological experiment on PA gels formed with CaCl2; type: physicochemical; conditions: 5 mM PA gelled with 0.2 M CaCl2, 100 Hz, 0.5% strain, 25° C.
Description: The mechanical property of the PAs was evaluated by performing rheological studies. 25 μL of 0.2 M CaCl2 were added to gel 250 μL of 5 mM PA MilliQ-water solution aged for 2 days on the rheometer. Tests were performed at 100 Hz with 0.5% strain at 25° C., using a 25 mm parallel plate with a 0.5 mm gap distance. The storage moduli used were taken from the time test at 5000 seconds. Frequency sweeps were done at a constant strain of 0.5%, and strain sweeps were done at a frequency of 100 Hz. The plateau modulus was determined as 10, 7.5, 7.5, and 2.8 kPa for parent PA, PA Z1, Z2, and Z3, respectively.

Staphylococcus aureus = type: cell-based
Description: S. aureus (ATCC 25923) (American Type Culture Collection, Manassas, Va.) was cultured in LB broth overnight at 37° C. The suspension of the overnight culture was inoculated in fresh LB broth and cultured under aerobic conditions until reaching an OD600 value of approximately 0.5 (exponential growth phase). The bacterial cells were harvested by centrifugation at 1,500×g for 10 min, washed thrice with PBS, and re-suspended in the appropriate solution for experiment. The bacterial cell suspensions were diluted to an OD600 value of 0.1, which corresponds to 1×10^7 CFU/mL for S. aureus. Before experiment, the bacterial cells were then diluted 1:10 with PBS unless otherwise noted.
The MIC values of peptide amphiphiles were determined in PBS. The MIC determination was made by the Mueller-Hinton (MH) agar plate method. Two-fold serial dilutions of test compound (peptide amphiphiles) solutions in PBS were firstly made in a 96-well microtiter plate. The test compound concentration ranged from 500 μM to 1 μM with 50 μL volume. Then, 50 μL of S. aureus (1×10^6 CFU/mL) suspended in PBS was added to each well for a final cell density of 5×10^5 CFU/mL. The samples were incubated for 3 hrs at 37° C., and then streaked onto MH agar plates. The plates were incubated overnight at 37° C. and the MIC value was recorded based on the lowest test compound concentration that inhibited colony growth.
The minimum inhibitory concentration (MIC) of the PAs against Staphylococcus aureus was determined to estimate their bioactivity as antimicrobial agents. The bacterial cell density is 5×10^5 CFU/mL, and the concentration of the PA solutions is ranging from 0.3 μM to 500 μM. […], the MIC value for PAs Z1 and Z2 was determined to be 4 μM, while inhibition of the growth of the bacterium after treatment by parent PA and PA Z3 at 500 μM was not observed.

plateau modulus [1] [kPa] | minimum inhibitory concentration (MIC) (Staphylococcus aureus) [µM] | Structure (SMILES)
7.5 | 4 (≈ 5.17 µg/mL) | CCCCCCCCCCCCCCCC(=O)N[C@@H](Cc1c(F)c(F)c(F)c(F)c1F)C(=O)N[C@H](C(=O)N[C@H](C(=O)N[C@@H](C)C(=O)N[C@@H](C)C(=O)N[C@@H](C)C(=O)N[C@@H](CCC(=O)O)C(=O)N[C@@H](CCC(=O)O)C(=O)N[C@@H](CCC(=O)O)C(N)=O)C(C)C)C(C)C [PA Z1] (Palmitoyl-[Phe(F5)]VVAAAEEE-NH2; C-terminus assumed)
7.5 | 4 (≈ 5.17 µg/mL) | CCCCCCCCCCCCCCCC(=O)N[C@H](C(=O)N[C@@H](Cc1c(F)c(F)c(F)c(F)c1F)C(=O)N[C@H](C(=O)N[C@@H](C)C(=O)N[C@@H](C)C(=O)N[C@@H](C)C(=O)N[C@@H](CCC(=O)O)C(=O)N[C@@H](CCC(=O)O)C(=O)N[C@@H](CCC(=O)O)C(N)=O)C(C)C)C(C)C [PA Z2] (Palmitoyl-V[Phe(F5)]VAAAEEE-NH2; C-terminus assumed)
2.8 | > 500 | CCCCCCCCCCCCCCCC(=O)N[C@H](C(=O)N[C@H](C(=O)N[C@@H](Cc1c(F)c(F)c(F)c(F)c1F)C(=O)N[C@@H](C)C(=O)N[C@@H](C)C(=O)N[C@@H](C)C(=O)N[C@@H](CCC(=O)O)C(=O)N[C@@H](CCC(=O)O)C(=O)N[C@@H](CCC(=O)O)C(N)=O)C(C)C)C(C)C [PA Z3] (Palmitoyl-VV[Phe(F5)]AAAEEE-NH2; C-terminus assumed)
10 | > 500 | CCCCCCCCCCCCCCCC(=O)N[C@H](C(=O)N[C@H](C(=O)N[C@H](C(=O)N[C@@H](C)C(=O)N[C@@H](C)C(=O)N[C@@H](C)C(=O)N[C@@H](CCC(=O)O)C(=O)N[C@@H](CCC(=O)O)C(=O)N[C@@H](CCC(=O)O)C(N)=O)C(C)C)C(C)C)C(C)C [parent PA, reference compound] (Palmitoyl-VVVAAAEEE-NH2; C-terminus assumed)
